This assay deals with T1, Dimer of Gag-Pol polyprotein [501-599,Q508K,L534I,L564I,C568A,C596A] (Human immunodeficiency virus 1, UniProt P03367, C568A/C596A/L534I/L564I/Q508K).
T1 construct: 501-599
The experiment in a line: Protease Inhibition Assay. The note with it: pH 6.4; 25 °C. As for the experimental part: The Ki values were determined using fluorogenic substrate, 2-(aminobenzoyl)-Thr-Ile-Nle-Phe(p-NO2)-Gln-ArgNH2. A standard curve relating changes in fluorescent intensity to changes in concentration of product was used to convert fluorescent changes into molar velocities. The amount of cleavage was determined by HPLC.

With `COc1ccc(S(=O)(=O)N(CC2CCCC2)C[C@@H](O)CN2C(=O)COC[C@@H]2Cc2ccccc2)cc1`, the Ki (usually the equilibrium dissociation constant of an inhibitor or competing ligand from its target) came out at 1 µM. The figure for `COc1ccc(S(=O)(=O)N(CC2CCCC2)C[C@@H](O)CN2C(=O)C3(CCOCC3)OC[C@@H]2Cc2ccccc2)cc1` [(2S)-3-[(3S)-3-benzyl-5-oxo-1,9-dioxa-4-azaspiro[5.5]undecan-4-yl]-N-(cyclopentylmethyl)-2-hydroxy-N-(4-methoxyphenyl)propane-1-sulfonamido] is 0.023 µM.

The values above are taken from BindingDB's records for doi:10.1016/j.bmcl.2006.07.014 (Glaxosmithkline, 2006).
